Literature values as cited in patent publication US20240108699A1 (priority 2022, published 2024).

Details: in vivo

In the case of Botulinum toxin complex A [BoNT-A], the “time for which effects are maintained” value is listed as “three to six”.
